This passage reports TGI results from PubChem BioAssay (NCI).

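Step 1: Grow cells in 96-well plates. Step 2: Expose to compound for 48 hours at 5 concentrations. Step 3: Interpolate endpoints linearly; if unreached, use highest concentration. Definition used: TGI = concentration required for complete inhibition of growth.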 Bounds are passed on as bounds.

As a reminder, the TGI is the concentration giving total growth inhibition. A high value points to less potent growth arrest.

Test systems include LOX IMVI melanoma; OVCAR-8 ovarian; MALME-3M melanoma; DU-145 prostate; NCI-H522 lung; U251 CNS; HS 578T breast; HCT-116 colon; TK-10 renal; BT-549 breast; OVCAR-5 ovarian; KM12 colon; SK-OV-3 ovarian; HCC-2998 colon; OVCAR-4 ovarian; MCF7 breast; SF-539 CNS; SK-MEL-28 melanoma; RPMI-8226 leukemia.
Test in all cases: DTP human tumour cell line panel, 48 h

`COc1cc2ccc1OCc1cccc(n1)COc1ccc(cc1OC)C=NCCNCCNCCN=C2`: the concentration for total growth inhibition (TGI) in the assay with LOX IMVI melanoma, in the assay on OVCAR-8 ovarian, with MALME-3M melanoma, in the assay on DU-145 prostate, in the assay with NCI-H522 lung and with U251 CNS was greater than 100 µM in each case. Also, the concentration for total growth inhibition (TGI) with HS 578T breast, in the assay on HCT-116 colon, with TK-10 renal, in the assay with BT-549 breast, in the assay with OVCAR-5 ovarian and in the assay on KM12 colon was greater than 100 µM in each case. Also, the TGI in the assay on SK-OV-3 ovarian, in the assay with HCC-2998 colon, in the assay with OVCAR-4 ovarian, in the assay with MCF7 breast and in the assay with SF-539 CNS was greater than 100 µM throughout.

For `CSCCCNC(=O)c1csc(-c2csc(CCNC(=O)CNC(=O)CNC(=O)OC(C)(C)C)n2)n1`, the TGI with LOX IMVI melanoma, with OVCAR-8 ovarian, in the assay with MALME-3M melanoma, with DU-145 prostate, in the assay on NCI-H522 lung and in the assay on SK-MEL-28 melanoma was greater than 100 µM each time. Further, the concentration for total growth inhibition (TGI) in the assay on U251 CNS, with HS 578T breast, in the assay on HCT-116 colon, in the assay with TK-10 renal, with BT-549 breast and in the assay on OVCAR-5 ovarian was greater than 100 µM throughout. In addition, the TGI with KM12 colon, with SK-OV-3 ovarian, with HCC-2998 colon, in the assay on OVCAR-4 ovarian, with MCF7 breast and in the assay with SF-539 CNS was greater than 100 µM each time.

As for `CN1C(=O)CC2CCC(=O)N2c2cccnc21` (centres undefined), the TGI in the assay with LOX IMVI melanoma, with OVCAR-8 ovarian, with MALME-3M melanoma, with DU-145 prostate, in the assay on NCI-H522 lung and with SK-MEL-28 melanoma was greater than 100 µM throughout. The TGI with U251 CNS, with HS 578T breast, with RPMI-8226 leukemia, in the assay with HCT-116 colon, in the assay on TK-10 renal and in the assay on BT-549 breast was greater than 100 µM throughout. For the same compound, the total growth inhibition concentration (TGI) in the assay on KM12 colon, in the assay with HCC-2998 colon, with OVCAR-4 ovarian, in the assay on MCF7 breast and in the assay on SF-539 CNS was greater than 100 µM throughout.

Consider `NC(=Nc1cccc(Cl)c1)c1ccccc1N`, for which the TGI with LOX IMVI melanoma, in the assay with OVCAR-8 ovarian, in the assay on MALME-3M melanoma, in the assay with DU-145 prostate, with NCI-H522 lung and in the assay with SK-MEL-28 melanoma was greater than 100 µM each time. For the same compound, the TGI in the assay with U251 CNS, in the assay on HS 578T breast, in the assay on RPMI-8226 leukemia, in the assay on HCT-116 colon, with TK-10 renal and with BT-549 breast was greater than 100 µM throughout. Besides, the TGI in the assay on OVCAR-5 ovarian, with KM12 colon, in the assay on SK-OV-3 ovarian, in the assay with HCC-2998 colon, in the assay on OVCAR-4 ovarian and in the assay with MCF7 breast was greater than 100 µM throughout.

For `CC1(C)CCCCCC(C)(CCCO)C1=O` (centres undefined), the TGI with LOX IMVI melanoma, in the assay on OVCAR-8 ovarian, in the assay on MALME-3M melanoma, with DU-145 prostate, with NCI-H522 lung and with SK-MEL-28 melanoma was greater than 100 µM in each case. Besides, the concentration for total growth inhibition (TGI) in the assay with U251 CNS, in the assay on HS 578T breast, in the assay on RPMI-8226 leukemia, in the assay on HCT-116 colon, in the assay on BT-549 breast and with OVCAR-5 ovarian was greater than 100 µM throughout. In addition, the TGI with KM12 colon, with SK-OV-3 ovarian, in the assay with HCC-2998 colon, in the assay with OVCAR-4 ovarian and with MCF7 breast was greater than 100 µM in each case.

For `S=C(N1CCN(c2cccc(Cl)c2)CC1)N1CCN(c2cccc(Cl)c2)CC1`, the TGI in the assay on OVCAR-8 ovarian was greater than 100 µM; in the assay on MALME-3M melanoma, 71.4 µM; with DU-145 prostate it was greater than 100 µM; with NCI-H522 lung, greater than 100 µM; in the assay on SK-MEL-28 melanoma, greater than 100 µM; in the assay on U251 CNS, greater than 100 µM. For the same compound, the total growth inhibition concentration (TGI) was 66.6 µM with HS 578T breast; greater than 100 µM in the assay on RPMI-8226 leukemia; greater than 100 µM in the assay on HCT-116 colon; greater than 100 µM with TK-10 renal; greater than 100 µM with BT-549 breast; greater than 100 µM with OVCAR-5 ovarian. Besides, the concentration for total growth inhibition (TGI) was 61.7 µM with KM12 colon; greater than 100 µM with SK-OV-3 ovarian; 36.1 µM in the assay with HCC-2998 colon; greater than 100 µM with OVCAR-4 ovarian; greater than 100 µM in the assay with MCF7 breast.

For `O=C(O)c1ccc(Nc2nc3cc(C(F)(F)F)ccc3n3cccc23)cc1`, the TGI is 30.5 µM in the assay with LOX IMVI melanoma; greater than 100 µM with OVCAR-8 ovarian; greater than 100 µM with MALME-3M melanoma; greater than 100 µM in the assay with DU-145 prostate; 53.8 µM in the assay with NCI-H522 lung; greater than 100 µM with SK-MEL-28 melanoma. For the same compound, the TGI with U251 CNS is 52.6 µM; in the assay with HS 578T breast it was greater than 100 µM; with RPMI-8226 leukemia it was 68.6 µM; with HCT-116 colon, 68.2 µM; in the assay with TK-10 renal, greater than 100 µM; in the assay with BT-549 breast it was greater than 100 µM. Besides, the TGI is greater than 100 µM in the assay with OVCAR-5 ovarian; greater than 100 µM in the assay with KM12 colon; greater than 100 µM with SK-OV-3 ovarian; 44.6 µM in the assay with HCC-2998 colon; greater than 100 µM with MCF7 breast; 74.6 µM in the assay with SF-539 CNS.

In the case of `C(=Nc1ccc(-c2nc3ccccc3[nH]2)cc1)c1ccco1`, the TGI in the assay on LOX IMVI melanoma, in the assay with OVCAR-8 ovarian, in the assay on MALME-3M melanoma, with DU-145 prostate, in the assay with NCI-H522 lung and with SK-MEL-28 melanoma was greater than 100 µM each time. The TGI in the assay on HS 578T breast, with RPMI-8226 leukemia, in the assay on HCT-116 colon, in the assay with TK-10 renal, in the assay with BT-549 breast and with OVCAR-5 ovarian was greater than 100 µM in each case. Moreover, the TGI with KM12 colon, in the assay with HCC-2998 colon, in the assay with OVCAR-4 ovarian, in the assay on MCF7 breast and in the assay on SF-539 CNS was greater than 100 µM each time.
